Assays:
ragweed = experiment: Test C pre-/postemergence herbicide test; type: in vivo, Ambrosia elatior; details: for Ragweed plant response rating: scale 0 to 100, 0 is no effect and 100 is complete control
Summary of the method: (§1)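 Greenhouse plants scored visually against untreated controls 13–15 days after treatment, 0 = no effect, 100 = complete control. Test chemicals in a non-phytotoxic solvent with surfactant were applied either to soil (loam/sand) at planting or to foliage of 1- to 4-leaf plants, 2–18 cm tall.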

ryegrass, Italian = experiment: Test C pre-/postemergence herbicide test; type: in vivo, Lolium multiflorum; details: for Ryegrass, Italian plant response rating: scale 0 to 100, 0 is no effect and 100 is complete control
Summary of the method: as §1

velvetleaf = experiment: Test C pre-/postemergence herbicide test; type: in vivo, Abutilon theophrasti; details: for Velvetleaf plant response rating: scale 0 to 100, 0 is no effect and 100 is complete control
Summary of the method: as §1

oat, wild = experiment: Test C pre-/postemergence herbicide test; type: in vivo, Avena fatua; details: for Oat, Wild plant response rating: scale 0 to 100, 0 is no effect and 100 is complete control
From the text: Seeds of plant species selected from blackgrass (Alopecurus myosuroides), ryegrass, Italian (Italian ryegrass, Lolium multiflorum), wheat (winter wheat, Triticum aestivum), galium (catchweed bedstraw, Galium aparine), corn (Zea mays), crabgrass, large (large crabgrass, Digitaria sanguinalis), foxtail, giant (giant foxtail, Setaria faberii), johnsongrass (Sorghum halepense), lambsquarters (Chenopodium album), morningglory (Ipomoea coccinea), nutsedge, yellow (yellow nutsedge, Cyperus esculentus), pigweed (Amaranthus retroflexus), ragweed (common ragweed, Ambrosia elatior), soybean (Glycine max), barnyardgrass (Echinochloa crus-galli), oilseed rape (Brassica napus), waterhemp (common waterhemp, Amaranthus rudis), kochia (Kochia scoparia), oat, wild (wild oat, Avena fatua), surinam grass (Brachiaria decumbens), foxtail, green (green foxtail, Setaria viridis), goosegrass (Eleusine indica), bromegrass, downy (downy bromegrass, Bromus tectorum), nightshade (eastern black nightshade, Solanum ptycanthum), cocklebur (common cocklebur, Xanthium strumarium), cupgrass, woolly (woolly cupgrass, Eriochloa villosa), bermudagrass (Cynodon dactylon), sunflower, (common oilseed sunflower, Helianthus annuus), Russian thistle (Salsola kali) and velvetleaf (Abutilon theophrasti) were planted into a blend of loam soil and sand and treated preemergence with test chemicals formulated in a non-phytotoxic solvent mixture which included a surfactant. At the same time, plants selected from these crop and weed species and also barley (winter barley, Hordeum vulgare), […]), chickweed (common chickweed, Stellaria media), deadnettle (henbit deadnettle, Lamium amplexicaule), and canarygrass (littleseed canarygrass, Phalaris minor) were planted in pots containing Redi-Earth® planting medium (Scotts Company, 14111 Scottslawn Road, Marysville, Ohio 43041) comprising spaghnum peat moss, vermiculite, wetting agent and starter nutrients and treated with postemergence applications of test chemicals formulated in the same manner. Plants ranged in height from 2 to 18 cm (1- to 4-leaf stage) for postemergence treatments. Treated plants and controls were maintained in a greenhouse for 13 to 15 days, after which time all species were compared to controls and visually evaluated. Plant response ratings, summarized in Table C, are based on a scale of 0 to 100 where 0 is no effect and 100 is complete control. A dash (-) response means no test result.

giant foxtail = experiment: Test A pre-/postemergence herbicide test; type: in vivo, Setaria faberii; details: for Foxtail, Giant plant response rating: Preemergence, visual rating on 0 to 100 scale (0 no effect, 100 complete control)
Summary of the method: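 Visual 0–100 ratings (100 = complete control) made about 10 days after treatment, greenhouse-held plants compared with untreated controls. Treatments: postemergence sprays on one- to two-leaf plants (2–10 cm tall) and preemergence directed soil sprays after planting in loam–sand, chemicals formulated in non-phytotoxic solvent containing surfactant.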

[1] = Postemergence, 31 g ai/ha, scale 0 (no effect) to 100 (complete control)
[2] = Postemergence, 62 g ai/ha, scale 0 to 100 (0 no effect, 100 complete control)
[3] = Postemergence, 125 g ai/ha, scale 0 to 100 (0 no effect, 100 complete control)
[4] = Postemergence, 250 g ai/ha, scale 0 to 100 (0 no effect, 100 complete control)
[5] = Preemergence, 62 g ai/ha, scale 0 to 100
[6] = Preemergence, 125 g ai/ha, scale 0 to 100 (0 no effect, 100 complete control)
[7] = Postemergence, 125 g ai/ha, 0 to 100 scale, 0 no effect, 100 complete control
[8] = Postemergence, 500 g ai/ha, 0 to 100 scale (0 no effect, 100 complete control)
[9] = preemergence, 500 g ai/ha, 0 to 100 scale

O=C1NCC(c2ccccc2)C1C(=O)Nc1ccccc1F (racemic) [Compound 81]
Plant response rating, Ragweed (ragweed; [1]): 0 | Plant response rating, Ragweed (ragweed; [2]): 0 | Plant response rating, Ragweed (ragweed; [3]): 0 | Plant response rating, Ragweed (ragweed; [4]): 0 | Ragweed plant response rating (ragweed; Preemergence, 31 g ai/ha): 0 | Plant response rating, Ragweed (ragweed; [5]): 0 | Plant response rating, Ragweed (ragweed; [6]): 0 | Plant response rating (scale of 0 to 100), Ragweed (ragweed; Preemergence, 250 g ai/ha): 0 | Plant response rating, Ryegrass, Italian (ryegrass, Italian; [1]): 0 | Plant response rating, Ryegrass, Italian (ryegrass, Italian; [2]): 0 | Plant response rating, Ryegrass, Italian (ryegrass, Italian; [3]): 0 | Plant response rating, Ryegrass, Italian (ryegrass, Italian; [4]): 0 | Ryegrass, Italian plant response rating (ryegrass, Italian; Preemergence, 31 g ai/ha): 0 | Plant response rating, Ryegrass, Italian (ryegrass, Italian; [5]): 0 | Plant response rating, Ryegrass, Italian (ryegrass, Italian; [6]): 0 | Plant response rating (scale of 0 to 100), Ryegrass, Italian (ryegrass, Italian; Preemergence, 250 g ai/ha): 0 | Plant response rating, Velvetleaf (velvetleaf; [1]): 0 | Plant response rating, Velvetleaf (velvetleaf; [2]): 0 | Plant response rating, Velvetleaf (velvetleaf; [3]): 0 | Plant response rating, Velvetleaf (velvetleaf; [4]): 0 | Velvetleaf plant response rating (velvetleaf; Preemergence, 31 g ai/ha): 0 | Plant response rating, Velvetleaf (velvetleaf; [5]): 0 | Plant response rating, Velvetleaf (velvetleaf; [6]): 0 | Plant response rating (scale of 0 to 100), Velvetleaf (velvetleaf; Preemergence, 250 g ai/ha): 0 | Plant response rating, Oat, Wild (oat, wild; [1]): 0 | Plant response rating, Oat, Wild (oat, wild; [2]): 0 | Plant response rating, Oat, Wild (oat, wild; [3]): 0 | Plant response rating, Oat, Wild (oat, wild; [4]): 0 | Oat, Wild plant response rating (oat, wild; Preemergence, 31 g ai/ha): 0 | Plant response rating, Oat, Wild (oat, wild; [5]): 0 | Plant response rating, Oat, Wild (oat, wild; [6]): 0 | Plant response rating (scale of 0 to 100), Oat, Wild (oat, wild; Preemergence, 250 g ai/ha): 0 | Plant response rating, Foxtail, Giant (giant foxtail; [7]): 20 | Plant response rating, Foxtail, Giant (giant foxtail; [8]): 70 | Foxtail, Giant plant response rating (giant foxtail; 125 g ai/ha): 30 | Plant response rating, Foxtail, Giant (giant foxtail; [9]): 90

O=C1NCC(c2ccc(Cl)c(F)c2)C1C(=O)Nc1ccccc1F (stereo not drawn) [Compound 53]
Plant response rating, Ragweed (ragweed; [5]): 10 | Plant response rating, Ragweed (ragweed; [6]): 10 | Plant response rating, Ryegrass, Italian (ryegrass, Italian; [5]): 0 | Plant response rating, Ryegrass, Italian (ryegrass, Italian; [6]): 0 | Plant response rating, Velvetleaf (velvetleaf; [5]): 0 | Plant response rating, Velvetleaf (velvetleaf; [6]): 0 | Plant response rating, Oat, Wild (oat, wild; [5]): 0 | Plant response rating, Oat, Wild (oat, wild; [6]): 0 | Plant response rating, Foxtail, Giant (giant foxtail; [7]): 30 | Plant response rating, Foxtail, Giant (giant foxtail; [8]): 80 | Foxtail, Giant plant response rating (giant foxtail; 125 g ai/ha): 90 | Plant response rating, Foxtail, Giant (giant foxtail; [9]): 90

O=C1NCC(c2ccc(F)c(Cl)c2)C1C(=O)Nc1cccc(F)c1F (stereo not drawn) [Compound 59]
Plant response rating, Ragweed (ragweed; [5]): 0 | Plant response rating, Ragweed (ragweed; [6]): 0 | Plant response rating, Ryegrass, Italian (ryegrass, Italian; [5]): 0 | Plant response rating, Ryegrass, Italian (ryegrass, Italian; [6]): 0 | Plant response rating, Velvetleaf (velvetleaf; [5]): 0 | Plant response rating, Velvetleaf (velvetleaf; [6]): 0 | Plant response rating, Oat, Wild (oat, wild; [5]): 0 | Plant response rating, Oat, Wild (oat, wild; [6]): 0 | Plant response rating, Foxtail, Giant (giant foxtail; [7]): 80 | Plant response rating, Foxtail, Giant (giant foxtail; [8]): 80 | Foxtail, Giant plant response rating (giant foxtail; 125 g ai/ha): 80 | Plant response rating, Foxtail, Giant (giant foxtail; [9]): 90

O=C1NCC(c2ccc3c(c2)OC(F)(F)O3)C1C(=O)Nc1cccc(F)c1F (stereo not drawn) [Compound 62]
Plant response rating, Ragweed (ragweed; [5]): 15 | Plant response rating, Ragweed (ragweed; [6]): 45 | Plant response rating, Ryegrass, Italian (ryegrass, Italian; [5]): 0 | Plant response rating, Ryegrass, Italian (ryegrass, Italian; [6]): 30 | Plant response rating, Velvetleaf (velvetleaf; [5]): 20 | Plant response rating, Velvetleaf (velvetleaf; [6]): 25 | Plant response rating, Oat, Wild (oat, wild; [5]): 40 | Plant response rating, Oat, Wild (oat, wild; [6]): 50 | Plant response rating, Foxtail, Giant (giant foxtail; [7]): 80 | Plant response rating, Foxtail, Giant (giant foxtail; [8]): 80 | Foxtail, Giant plant response rating (giant foxtail; 125 g ai/ha): 80 | Plant response rating, Foxtail, Giant (giant foxtail; [9]): 90

O=C1NCC(c2cccc(Br)c2)C1C(=O)Nc1cccc(F)c1F (stereo not drawn) [Compound 64]
Plant response rating, Ragweed (ragweed; [5]): 0 | Plant response rating, Ragweed (ragweed; [6]): 30 | Plant response rating, Ryegrass, Italian (ryegrass, Italian; [5]): 0 | Plant response rating, Ryegrass, Italian (ryegrass, Italian; [6]): 0 | Plant response rating, Velvetleaf (velvetleaf; [5]): 10 | Plant response rating, Velvetleaf (velvetleaf; [6]): 10 | Plant response rating, Oat, Wild (oat, wild; [5]): 10 | Plant response rating, Oat, Wild (oat, wild; [6]): 10 | Plant response rating, Foxtail, Giant (giant foxtail; [7]): 70 | Plant response rating, Foxtail, Giant (giant foxtail; [8]): 80 | Foxtail, Giant plant response rating (giant foxtail; 125 g ai/ha): 80 | Plant response rating, Foxtail, Giant (giant foxtail; [9]): 90

O=C1NCC(c2cccc(Br)c2)C1C(=O)Nc1ccccc1F (stereo not drawn) [Compound 66]
Ragweed plant response rating (ragweed; Preemergence, 31 g ai/ha): 10 | Plant response rating, Ragweed (ragweed; [5]): 20 | Plant response rating, Ragweed (ragweed; [6]): 25 | Ryegrass, Italian plant response rating (ryegrass, Italian; Preemergence, 31 g ai/ha): 0 | Plant response rating, Ryegrass, Italian (ryegrass, Italian; [5]): 0 | Plant response rating, Ryegrass, Italian (ryegrass, Italian; [6]): 0 | Velvetleaf plant response rating (velvetleaf; Preemergence, 31 g ai/ha): 10 | Plant response rating, Velvetleaf (velvetleaf; [5]): 20 | Plant response rating, Velvetleaf (velvetleaf; [6]): 25 | Oat, Wild plant response rating (oat, wild; Preemergence, 31 g ai/ha): 0 | Plant response rating, Oat, Wild (oat, wild; [5]): 0 | Plant response rating, Oat, Wild (oat, wild; [6]): 0 | Plant response rating, Foxtail, Giant (giant foxtail; [7]): 70 | Plant response rating, Foxtail, Giant (giant foxtail; [8]): 80 | Foxtail, Giant plant response rating (giant foxtail; 125 g ai/ha): 80 | Plant response rating, Foxtail, Giant (giant foxtail; [9]): 90

O=C1NCC(c2cccc(OC(F)(F)F)c2)C1C(=O)Nc1cccc(F)c1F (stereo not drawn) [Compound 68]
Ragweed plant response rating (ragweed; Preemergence, 31 g ai/ha): 0 | Plant response rating, Ragweed (ragweed; [5]): 0 | Plant response rating, Ragweed (ragweed; [6]): 0 | Ryegrass, Italian plant response rating (ryegrass, Italian; Preemergence, 31 g ai/ha): 0 | Plant response rating, Ryegrass, Italian (ryegrass, Italian; [5]): 0 | Plant response rating, Ryegrass, Italian (ryegrass, Italian; [6]): 0 | Velvetleaf plant response rating (velvetleaf; Preemergence, 31 g ai/ha): 10 | Plant response rating, Velvetleaf (velvetleaf; [5]): 10 | Plant response rating, Velvetleaf (velvetleaf; [6]): 10 | Plant response rating, Oat, Wild (oat, wild; [6]): 0 | Plant response rating, Foxtail, Giant (giant foxtail; [7]): 80 | Plant response rating, Foxtail, Giant (giant foxtail; [8]): 80 | Foxtail, Giant plant response rating (giant foxtail; 125 g ai/ha): 90 | Plant response rating, Foxtail, Giant (giant foxtail; [9]): 90
